Laboratory results taken from patent publication US20260234159A1, “SMALL MOLECULE TREATMENT OF FATTY LIVER DISEASE AND HCC” (SCANDIEDGE THERAPEUTICS AB, priority 2023, published 2026).

Tests used:
HepG2 cells [1] = test: FACs analysis with PI staining (cell cycle); type: cell-based, human; conditions: for Cell population G0/G1 / Cell population G2/M / Cell population S: PI FACs, 10 μM, 2 days
Protocol: 400,000 HepG2 cells were seeded in a 6-well plated and treated with 10 μM of the compounds for 2 days. Cells were fixed with 70% ethanol and stained with 50 μg/ml PI. Prepared cells were analysed using BD FACS Canto II Flow Cytometry system at PE-A channel 10,000 cells per group. The data was histogram plotted with BD FACSDiva 9.0.

HepG2 cells [2] = test: Mitochondrial membrane potential assay (TMRE); type: cell-based, human; conditions: 10 μM, one day
Summary of the method: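 HepG2 cells treated with compounds at the chosen concentration and time, then assayed with kits for TMRE, autophagy, DCFDA ROS or lipid peroxidation. Fluorescence intensity measured from ROI in images or by microplate reader in triplicate (GFP Ex480/Em530 nm, RFP Ex549/Em574 nm).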

[3] = In vivo toxicological study in rats: plasma chemistry; parameters: species or system rats of the Wistar strain
Protocol: Forty-two male and forty-two female rats of the Wistar strain were allocated to the study. Three groups of three males and three females were given doses of 30, 100 and 300 mg/kg of target compounds (Table 8). The vehicle was 1.5 w/w % HPMC, 1.5 w/w % PS80 in 10 mM PBS, pH 7 and dose volume were 5 mL/kg. The animals were acclimatised at least 14 day prior to the study and exposed to a 12 hours light, 12 hours dark light cycle. The formulations were administered via oral gavage. Administration occurred once daily in the morning for seven consecutive days. Blood for scheduled haematology and plasma chemistry were taken at necropsy. For plasma chemistry, 0.6 ml blood (lithium heparin) per animal and for haematology, 0.5 ml blood (K2EDTA) per animal. The blood and plasma were analysed using Exigo analyzer and Vetscan equipment. Blood samples were kept in room temperature […] after collection and mixing. The blood samples were analysed as whole blood within 60 min of collection. The VetScan analyser was calibrated with calibration samples of known plasma levels of each parameter before start of analysis, occasionally during the analysis period of study samples and after completed analyses (Table 10).

[4] = female, 30 mg/kg oral daily 7 d
[5] = female, 100 mg/kg oral daily 7 d
[6] = female, 300 mg/kg oral daily 7 d
[7] = plasma, Sex/Group F/8, 30-300 mg/kg of SET159
[8] = plasma, Sex/Group F/9, 30-300 mg/kg of SET159
[9] = plasma, Sex/Group F/10, 30-300 mg/kg of SET159
[10] = plasma, Sex/Group M/8, 30-300 mg/kg of SET159
[11] = plasma, Sex/Group M/9, 30-300 mg/kg of SET159
[12] = plasma, Sex/Group M/10, 30-300 mg/kg of SET159

COc1ccc(C(=O)Nc2sc3c(c2C#N)CCCCC3)cc1OC [PKL-A135, N-(3-cyano-5,6,7,8-tetrahydro-4H-cyclohepta[b]thiophen-2-yl)-3,4-dimethoxy-benzamide]
Cell population G0/G1 (HepG2 cells [1]): 5.5
Cell population G2/M (HepG2 cells [1]): 79.9
Cell population S (HepG2 cells [1]): 2.0
cells in the G2/M phase (HepG2 cells [1]; histogram plots): around 89%
mitochondrial membrane potential (HepG2 cells [2]): significantly decreased
ALB [3, 4]: 56 g/L
ALP [3, 4]: 117 U/L
ALT [3, 4]: 23 U/L
AMY [3, 4]: 564 U/L
BUN [3, 4]: 6.0 mmol/L
CA [3, 4]: 2.91 mmol/L
CRE [3, 4]: 31 µmol/L
GLOB [3, 4]: 8 g/L
GLU [3, 4]: 8.1 mmol/L
K+ [3, 4]: 4.6 mmol/L
NA+ [3, 4]: 141 mmol/L
PHOS [3, 4]: 2.30 mmol/L
TBIL [3, 4]: 5.3 µmol/L
TP [3, 4]: 64 g/L
ALB [3, 5]: 59 g/L
ALP [3, 5]: 126 U/L
ALT [3, 5]: 23 U/L
AMY [3, 5]: 589 U/L
BUN [3, 5]: 5.7 mmol/L
CA [3, 5]: 2.96 mmol/L
CRE [3, 5]: 44 µmol/L
GLOB [3, 5]: 11 g/L
GLU [3, 5]: 7.9 mmol/L
K+ [3, 5]: 4.4 mmol/L
NA+ [3, 5]: 140 mmol/L
PHOS [3, 5]: 2.34 mmol/L
TBIL [3, 5]: 5.0 µmol/L
TP [3, 5]: 71 g/L
ALB [3, 6]: 59 g/L
ALP [3, 6]: 156 U/L
ALT [3, 6]: 20 U/L
AMY [3, 6]: 590 U/L
BUN [3, 6]: 5.3 mmol/L
CA [3, 6]: 3.00 mmol/L
CRE [3, 6]: 41 µmol/L
GLOB [3, 6]: 9 g/L
GLU [3, 6]: 7.8 mmol/L
K+ [3, 6]: 4.6 mmol/L
NA+ [3, 6]: 142 mmol/L
PHOS [3, 6]: 2.91 mmol/L
TBIL [3, 6]: 5.3 µmol/L
TP [3, 6]: 67 g/L
ALB ([3]; male, 30 mg/kg oral daily 7 d): 50 g/L
ALP ([3]; male, 30 mg/kg oral daily 7 d): 234 U/L
ALT ([3]; male, 30 mg/kg oral daily 7 d): 33 U/L
AMY ([3]; male, 30 mg/kg oral daily 7 d): 757 U/L
BUN ([3]; male, 30 mg/kg oral daily 7 d): 5.6 mmol/L
CA ([3]; male, 30 mg/kg oral daily 7 d): 3.01 mmol/L
CRE ([3]; male, 30 mg/kg oral daily 7 d): 39 µmol/L
GLOB ([3]; male, 30 mg/kg oral daily 7 d): 15 g/L
GLU ([3]; male, 30 mg/kg oral daily 7 d): 8.5 mmol/L
K+ ([3]; male, 30 mg/kg oral daily 7 d): 4.80 mmol/L
NA+ ([3]; male, 30 mg/kg oral daily 7 d): 140 mmol/L
PHOS ([3]; male, 30 mg/kg oral daily 7 d): 2.20 mmol/L
TBIL ([3]; male, 30 mg/kg oral daily 7 d): 5.0 µmol/L
TP ([3]; male, 30 mg/kg oral daily 7 d): 65 g/L
ALB ([3]; male, 100 mg/kg oral daily 7 d): 50 g/L
ALP ([3]; male, 100 mg/kg oral daily 7 d): 259 U/L
ALT ([3]; male, 100 mg/kg oral daily 7 d): 25 U/L
AMY ([3]; male, 100 mg/kg oral daily 7 d): 770 U/L
BUN ([3]; male, 100 mg/kg oral daily 7 d): 5.6 mmol/L
CA ([3]; male, 100 mg/kg oral daily 7 d): 2.95 mmol/L
CRE ([3]; male, 100 mg/kg oral daily 7 d): 36 µmol/L
GLOB ([3]; male, 100 mg/kg oral daily 7 d): 12 g/L
GLU ([3]; male, 100 mg/kg oral daily 7 d): 8.9 mmol/L
K+ ([3]; male, 100 mg/kg oral daily 7 d): 4.83 mmol/L
NA+ ([3]; male, 100 mg/kg oral daily 7 d): 138 mmol/L
PHOS ([3]; male, 100 mg/kg oral daily 7 d): 2.51 mmol/L
TBIL ([3]; male, 100 mg/kg oral daily 7 d): 4.7 µmol/L
TP ([3]; male, 100 mg/kg oral daily 7 d): 61 g/L
ALB ([3]; male, 300 mg/kg oral daily 7 d): 50 g/L
ALP ([3]; male, 300 mg/kg oral daily 7 d): 275 U/L
ALT ([3]; male, 300 mg/kg oral daily 7 d): 28 U/L
AMY ([3]; male, 300 mg/kg oral daily 7 d): 835 U/L
BUN ([3]; male, 300 mg/kg oral daily 7 d): 5.7 mmol/L
CA ([3]; male, 300 mg/kg oral daily 7 d): 2.98 mmol/L
CRE ([3]; male, 300 mg/kg oral daily 7 d): 38 µmol/L
GLOB ([3]; male, 300 mg/kg oral daily 7 d): 13 g/L
GLU ([3]; male, 300 mg/kg oral daily 7 d): 9.0 mmol/L
K+ ([3]; male, 300 mg/kg oral daily 7 d): 5.2 mmol/L
NA+ ([3]; male, 300 mg/kg oral daily 7 d): 140 mmol/L
PHOS ([3]; male, 300 mg/kg oral daily 7 d): 2.64 mmol/L
TBIL ([3]; male, 300 mg/kg oral daily 7 d): 5.0 µmol/L
TP ([3]; male, 300 mg/kg oral daily 7 d): 63 g/L

N#Cc1c(NC(=O)c2cccc3ccccc23)sc2c1CCN(C(=O)Nc1ccccc1OC(F)(F)F)C2 [PKL-A159]
Cell population G0/G1 (HepG2 cells [1]): 30.5
Cell population G2/M (HepG2 cells [1]): 62.4
Cell population S (HepG2 cells [1]): 3.3
mitochondrial membrane potential (HepG2 cells [2]): significantly decreased
ALB [3, 7]: 56 g/L
ALP [3, 7]: 179 U/L
ALT [3, 7]: 22 U/L
AMY [3, 7]: 541 U/L
BUN [3, 7]: 6.2 mmol/L
CA [3, 7]: 2.76 mmol/L
CRE [3, 7]: 39 µmol/L
GLOB [3, 7]: 9 g/L
GLU [3, 7]: 7.8 mmol/L
K+ [3, 7]: 4.9 mmol/L
NA+ [3, 7]: 139 mmol/L
PHOS [3, 7]: 2.59 mmol/L
TBIL [3, 7]: 4.0 µmol/L
TP [3, 7]: 65 g/L
ALB [3, 8]: 57 g/L
ALP [3, 8]: 135 U/L
ALT [3, 8]: 21 U/L
AMY [3, 8]: 542 U/L
BUN [3, 8]: 5.1 mmol/L
CA [3, 8]: 2.88 mmol/L
CRE [3, 8]: 46 µmol/L
GLOB [3, 8]: 8 g/L
GLU [3, 8]: 7.0 mmol/L
K+ [3, 8]: 4.4 mmol/L
NA+ [3, 8]: 139 mmol/L
PHOS [3, 8]: 2.65 mmol/L
TBIL [3, 8]: 4.3 µmol/L
TP [3, 8]: 65 g/L
ALB [3, 9]: 53 g/L
ALP [3, 9]: 175 U/L
ALT [3, 9]: 23 U/L
AMY [3, 9]: 481 U/L
BUN [3, 9]: 4.8 mmol/L
CA [3, 9]: 2.89 mmol/L
CRE [3, 9]: 40 µmol/L
GLOB [3, 9]: 9 g/L
GLU [3, 9]: 7.8 mmol/L
K+ [3, 9]: 4.7 mmol/L
NA+ [3, 9]: 139 mmol/L
PHOS [3, 9]: 2.80 mmol/L
TBIL [3, 9]: 4.0 µmol/L
TP [3, 9]: 62 g/L
ALB [3, 10]: 49 g/L
ALP [3, 10]: 274 U/L
ALT [3, 10]: 25 U/L
AMY [3, 10]: 719 U/L
BUN [3, 10]: 5.9 mmol/L
CA [3, 10]: 2.94 mmol/L
CRE [3, 10]: 29 µmol/L
GLOB [3, 10]: 11 g/L
GLU [3, 10]: 8.0 mmol/L
K+ [3, 10]: 5.0 mmol/L
NA+ [3, 10]: 141 mmol/L
PHOS [3, 10]: 2.44 mmol/L
TBIL [3, 10]: 4.0 µmol/L
TP [3, 10]: 60 g/L
ALB [3, 11]: 47 g/L
ALP [3, 11]: 324 U/L
ALT [3, 11]: 30 U/L
AMY [3, 11]: 823 U/L
BUN [3, 11]: 6.8 mmol/L
CA [3, 11]: 2.99 mmol/L
CRE [3, 11]: 36 µmol/L
GLOB [3, 11]: 16 g/L
GLU [3, 11]: 8.8 mmol/L
K+ [3, 11]: 5.0 mmol/L
NA+ [3, 11]: 141 mmol/L
PHOS [3, 11]: 2.43 mmol/L
TBIL [3, 11]: 4.3 µmol/L
TP [3, 11]: 63 g/L
ALB [3, 12]: 50 g/L
ALP [3, 12]: 284 U/L
ALT [3, 12]: 24 U/L
AMY [3, 12]: 806 U/L
BUN [3, 12]: 6.1 mmol/L
CA [3, 12]: 3.02 mmol/L
CRE [3, 12]: 47 µmol/L
GLOB [3, 12]: 13 g/L
GLU [3, 12]: 7.9 mmol/L
K+ [3, 12]: 4.8 mmol/L
NA+ [3, 12]: 142 mmol/L
PHOS [3, 12]: 2.42 mmol/L
TBIL [3, 12]: 4.3 µmol/L
TP [3, 12]: 62 g/L
